{"source": "paper PMC4646457", "about": "(PLoS ONE, 2015)", "origin": "cited, not measured here", "conditions": "refractory advanced or metastatic breast cancer; ref ZM2006/00137/00 (EGF100151); cited from earlier work", "data": [{"smiles": "CCCCCOC(=O)Nc1nc(=O)n([C@@H]2O[C@H](C)[C@@H](O)[C@H]2O)cc1F", "note": "[capecitabine]", "values": [{"measurement": "median time to progression", "value": 18.6, "unit": "weeks"}]}]}
